Laboratory results: US20220339100A1, “THERMOSENSITIVE MODIFIED CHITIN HYDROGEL LOCAL ANESTHETIC-LOADED SUSTAINED-RELEASE ANALGESIA SYSTEM, PREPARATION METHOD AND USE” (Wuhan University, priority 2021, published 2022)
Counter-ions that a name gives are not always drawn.

Tests used:
[1] = in-vitro cumulative drug release in PBS (dialysis bag, UV 263 nm); type: physicochemical; conditions: within 6 hours, 37° C., 100 rpm, same drug content as 2.0% system
Description: 1 ml of the above dispersion (suspension) was sucked with a precision syringe at 4° C. and put into a dialysis bag (molecular weight cut off: 8000-14000 Da), then the dialysis bag was put into a centrifuge tube which was equipped with 30 ml of PBS solution and placed in a 37° C. constant-temperature water-bath shaker that was vibrated at 100 rpm, samples were taken at different time. 2 ml of PBS solution was taken every time to be used as a sample supplemented with 2 mL of fresh PBS solution, the taken sample was analyzed by ultraviolet-visible spectrophotometry, the PBS solution was used as blank control, and a wavelength was detected as 263 nm. According to a standard curve of ropivacaine, the drug concentration of ropivacaine was calculated and a cumulative release curve was plotted. Three samples in each group were set for repetition. FIG. 1 is an in-vitro cumulative release curve of 2.0% R-HPCH-HA hydrogel sustained-release system represented by a 2.0% ropivacaine hydrochloride-loaded, wherein pure drugs (R) with the same drug content and an HPCH carrier (no hyaluronic acid, R-HPCH group) alone with the same drug content are used as control group. […] Thus, the injectable hydrogel drug delivery system comprising auxiliary component hyaluronic acid is benefit to the long-lasting local analgesia.

[2] = test system: human neuroblastoma cell lines (SH-SY5Y); type: cell-based; conditions: 24 h, 5 mM
Description: An in-vitro cytotoxicity test was performed on a ropivacaine-containing drug-loaded sustained-release system by using neuroblastoma cell line (SH-SY5Y) cells. Ropivacaine hydrochloride was dissolved into a PBS buffer to prepare a 10 mM ropivacaine solution, and the ropivacaine solution was diluted with a cell culture medium to prepare a cell culture medium with a concentration gradient of 0.5-5 mM in ropivacaine group; cell culture medium solutions containing HPCH2% and HA0.5% as well as a ropivacaine concentration of 10 mM were prepared at a low temperature and gelled at 37° C., and then a cell culture medium containing corresponding gel sustained-release systems and a ropivacaine concentration of 10 mM was prepared. SH-SY5Y cells were inoculated in a 96 well plate at a 10^4/mL cell density and normally cultured in a constant-temperature incubator for 24 h. Then, the above cell culture mediums containing pure drugs and drug gels were respectively added to be cultured for 24 h. The relative living cell numbers were tested by a Cell Counting Kit 8 (CCK-8) assay (FIG. 2).

sciatic nerve of SD rats = experiment: ultrasound-guided sciatic nerve block model, sensory block by hot plate method; type: in vivo, rat; conditions: 0.5 mL around sciatic nerve
Description: In order to evaluate the in-vivo analgesic effect of the drug-loaded sustained-release system, an ultrasound-guided sciatic nerve block model was used. Various sustained-release injection formulations containing ropivacaine were injected around the sciatic nerve of the right hind limb of SD rats under the guidance of ultrasound, and the nerve blocking effect was observed. The rats were anesthetized with 2% isoflurane and placed in a prone position. […] Then, the sensory and motor block of the right hind limbs of the rats were evaluated by a hot plate method and motor block 4-point method, respectively. […]
Operation with hot plate method: the rats were placed on a preheated metal surface (55±0.5° C.), which was surrounded by a cylindrical Plexiglas wall (20 cm high and 28 cm in diameter) to limit the movement of the rats. […] This time was recorded as the basic thermal latency (baseline) time of rats (tested 2 days before the beginning of the experiment), which was generally about 3-5 s, and the rats with too short or too long baseline time were excluded. In order to prevent tissue injury, if the rats still have no pain response after 20 s, the rats were taken out and the time was recorded as 20 s. […] The test data were expressed as percentage of maximum possible effect (MPE %) with the calculation formula as follows: […]

CCCN1CCCC[C@H]1C(=O)Nc1c(C)cccc1C [ropivacaine, ropivacaine hydrochloride]
cumulative release rate of ropivacaine [1]: exceeds 80%
cell viability [2]: 37.2%
time after which MPE value came back to the normal baseline (sciatic nerve of SD rats): 6 h
